Measured values as given in patent US7442373B2 (priority 2003, dated 2008).

How the values were obtained:
[1] = test system: Bacillus anthracis spores; design: species or system Hartley guinea pigs; details: guinea pig, in vivo
Bacillus anthracis Ames = test system: Bacillus anthracis Ames; design: species or system Swiss-Webster mice; details: mouse, in vivo

Compound	ED50 dose [1]	protection at low dose 1.12 mg/day [1]	protection, antibody alone ([1]; ip)	animals protected (Bacillus anthracis Ames)
O=C(O)c1cn(C2CC2)c2cc(N3CCNCC3)c(F)cc2c1=O [ciprofloxacin]	3 mg/day	non-protective		
AVP-21D9			provided protection and delayed the mean time of death	40%
